This is an account of results in paper PMC8050214 (Scientific Reports, 2021).

Test [1] deals with T1, hD2LR (human dopamine D2 receptor, long splice variant) (Homo sapiens, UniProt P14416).
T1 construct: gene DRD2; full-length long isoform, stably expressed in Flp-In HEK293 cells (G protein BRET assay); C351I G alpha subunits co-transfected as sensors; hD2LR-NLuc fusion with GRK2-Venus in the GRK2 recruitment assay (SCH23390 row)
Briefly: BRET G protein (GαoA) activation, Gβγ-Venus / masGRK3ct-NLuc release. Type of test: cell-based. In general terms: Bioluminescence resonance energy transfer reports proximity on the nanometre scale.

Test [2] deals with T1, hD2LR (human dopamine D2 receptor, long splice variant). The test can be described thus: Schild analysis, BRET GRK2 recruitment (hD2LR-NLuc / GRK2-Venus). It counts as cell-based. The conditions noted are these: read-out: pA2 (converted).

In general, EC50 refers to the concentration needed to bring the measured effect to its halfway point. The low end stands for greater potency, the high end for weaker potency. In test [1], `C=CCN1C[C@H](C(=O)N(CCCN(C)C)C(=O)NCC)C[C@@H]2c3cccc4[nH]cc(c34)C[C@H]21` [Cabergoline] gave a concentration giving a half-maximal response (EC50) of 1.58 nM.

As for `CCN(CC)C(=O)N[C@H]1C[C@@H]2c3cccc4[nH]cc(c34)C[C@H]2N(C)C1` [Terguride], in test [1], a half-maximal response (EC50) required 4.37 nM.

With `CC(C)C[C@H]1C(=O)N2CCC[C@H]2[C@]2(O)O[C@](NC(=O)[C@@H]3C=C4c5cccc6[nH]c(Br)c(c56)C[C@H]4N(C)C3)(C(C)C)C(=O)N12` [Bromocriptine], the response in test [1] was half-maximal at 14.5 nM (EC50).

For `CN1CCc2cc(Cl)c(O)cc2[C@@H](c2ccccc2)C1` [SCH23390], the Kb in test [2] is 525 nM.

In turn, `Oc1c(CN2CCN(c3ccccn3)CC2)cc(Cl)c2cccnc12` [MLS1547] gave a half-maximal effective concentration (EC50) in test [1] of 209 nM.

As for `CCCN(CCC)CCc1cccc2c1CC(=O)N2` [Ropinirole], the response in test [1] was half-maximal at 2.82 nM (EC50).

Compound `Clc1cccc(C2CCN(CCCOc3ccc4scnc4c3)CC2)c1Cl` [UNC9994] gave an EC50 in test [1] of 282 nM.
